Measurements as given in patent publication US11174216B2, “Lipids that increase insulin sensitivity and methods of using the same” (Beth Israel Deaconess Medical Center, Inc., priority 2012, dated 2021).

What was measured:
STC-1 cells [1] = test: GLP-1 secretion in STC-1 enteroendocrine cells (ELISA); type: cell-based
Protocol: For the experiments summarized in FIG. 51 STC-1 cells were incubated with vehicle (DMSO), 9-PAHSA, 5-PAHSA or 9-OAHSA at the indicated concentrations or lineolic acid (100 uM) as a positive control. Media was harvested and GLP-1 was measured by ELISA.
For the experiments summarized in FIG. 52, the same protocol as described for FIG. 51 was used, except in this experiment a time course was performed. For both FIG. 51 and FIG. 52, for GLP-1 secretion STC1 cells were washed 3× with serum free culture media followed by stimulation with FAHFAs or vehicle at the indicated concentrations and timepoints. Levels of active GLP-1 were measured by ELISA.

Ins1 cells = test: Insulin release studies in Ins1 cells; type: cell-based; conditions: 25 mM glucose in the media
Protocol: Ins1 cells (FIGS. 31A and 31B) or primary rat islet cells (FIG. 32A and FIG. 32B) were seeded in 24 well-plates [˜10^6 cells/well]. At confluence, cells were incubated with Low Serum [2.5%] and Low Glucose [2.5 mM] media for 12 hours. Next, cells were incubated with KRB buffer for 1 h and stimulated with glucose in the presence of 5-PAHSA (FIGS. 31a and 31B) or 9-PAHSA (FIG. 31B) for 45 min in KRB. At the end of the stimulation, 100 μL of media was collected and 10 μL was used to quantitate the amount of insulin released by ELISA. Treatment Conditions for FIGS. 31A, 31B and 32B were: • 5-PAHSA or 9-PAHSA [Stock]=20.0 mM [10.76 mg/mL Methanol] • A] 1 uM=0.3 uL/6 mL [Amount of methanol/mL=0.05 uL] • B] 5 uM=1.5 uL/6 mL [Amount of methanol/mL=0.25 uL] • C] 10 uM=3.0 uL/6 mL [Amount of methanol/mL=0.50 uL] • D] 20 uM=6.0 uL/6 mL [Amount of methanol/mL=1.00 uL]
Ins1 cells were seeded in 24 well-plates [˜10^6 cells/well] and at 80% confluence, were cultured overnight in RPMI 1640 medium containing 2.5 mM glucose and 2.5% fetal bovine serum supplemented with 100 IU/ml penicillin and […], 1 mM sodium pyruvate, 2-mercaptoethanol (50 μM) and 10 mM HEPES (pH 7.4). […] At the end of the stimulation supernatant was collected and insulin released into the medium was quantified by ELISA as per manufacturer's protocol. […]

STC-1 cells [2] = test: ERK phosphorylation in STC-1 cells (immunoblot); type: cell-based; conditions: 15 minutes
Protocol: For the experiments summarized in FIG. 50, STC-1 cells were incubated with 9-PAHSA, 5-PAHSA or 9-OAHSA at the indicated concentrations. Cells were harvested and lysed and proteins were separated by SDS PAGE and transferred onto nitrocellulose filters. The phosphorylation of ERK and the amount of total ERK was determined by immunoblotting with antibodies specific for total or phosphor-ERK. DMSO was the control. For ERK phosphorylation, cells were serum deprived overnight and stimulated with FAHFAs or vehicle as indicated for 15 minutes followed by lysis in RIPA buffer and analysis by SDS-PAGE

STC-1 cells [3] = test: Calcium flux (FURA2) in STC-1 cells; type: cell-based; conditions: 100 uM, no extracellular Ca2+
Protocol: For the experiments summarized in FIG. 49 the method is: Cells grown on collagen coated glass slides were preloaded with the calcium indicator, FURA2, for 60 minutes. Buffer containing either FAHFAs or vehicle was incubated with cells for a period of 3 minutes followed by washout with buffer alone. FURA2 fluorescence, an indicator of Calcium mobilization, was monitored continuously before and during the addition of compounds and throughout the washout period. Results were analyzed with metamorph software. Calcium Flux in STC-1 (intestinal enteroendocrine) cells in the absence of extracellular calcium (calcium free buffer). Ligands were injected after 3 minutes and washed out after an additional 3 minutes. The data presented is the average fold change in Fura2 fluorescence for 10 individual STC-1 cells in the same field.
DMSO control had no effect. Top panel is linoleic acid, a positive control. Middle panel 9-PAHSA (100 uM). Bottom panel 5-PAHSA (100 μM). These experiments were done in the absence of extracellular calcium.

GPR120 = target: T1, GPR120 (Homo sapiens, UniProt Q5NUL3); test: PATHHUNTER beta-Arrestin GPCR assay; type: cell-based
T1 sequence (Q5NUL3 1-361): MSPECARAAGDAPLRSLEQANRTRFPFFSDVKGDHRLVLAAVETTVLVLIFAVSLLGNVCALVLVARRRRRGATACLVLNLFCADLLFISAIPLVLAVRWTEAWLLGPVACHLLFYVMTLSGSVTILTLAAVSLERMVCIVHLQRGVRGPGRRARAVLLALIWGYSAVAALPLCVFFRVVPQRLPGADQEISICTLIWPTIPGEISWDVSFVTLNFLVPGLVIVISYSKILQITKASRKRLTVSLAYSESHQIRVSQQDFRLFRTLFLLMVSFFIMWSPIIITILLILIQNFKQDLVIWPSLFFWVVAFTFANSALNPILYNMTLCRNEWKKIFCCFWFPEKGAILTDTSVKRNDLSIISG
Excerpt: For the experiments summarized in FIGS. 53-55, the fragment based GPCR assay from DiscoveRx (PATHHUNTER® β-Arrestin assay) was used to as per manufacturer's instructions to determine activation of specific GPCRs as indicated in FIGS. 53-55.

[4] = tested on: FAHFA hydrolysis activity in liver lysate

SMILES	GLP-1 secretion (STC-1 cells [1])	insulin secretion (Ins1 cells)	ERK phosphorylation (STC-1 cells [2])	Ca2+ flux from intracellular stores (STC-1 cells [3])	activation of GPR120 (GPR120)	time course for GLP-1 secretion (STC-1 cells [1])	ligand for GPR120 (GPR120; bar graph and titration curve)	hydrolysis of 9-PAHSA to 9-HSA [4]
CCCCCCCCCCCCCCCC(=O)OC(CCCCCCCCCCCCC)CCCC(=O)O (stereo not shown) [5-PAHSA]	induce GLP-1 secretion	potentiate insulin secretion	induce ERK phosphorylation	induce Ca^2+ flux from intracellular stores	activate GPR120	–	–	–
CCCCCCCCCCCCCCCC(=O)OC(CCCCCCCCC)CCCCCCCC(=O)O (stereo not shown) [9-PAHSA, palmitoyl-9-hydroxystearic acid]	induce GLP-1 secretion	potentiate insulin secretion	induce ERK phosphorylation	induce Ca^2+ flux from intracellular stores	activate GPR120	very rapid and sustained	is a ligand for the GPCR, GPR120	Substantial 9-HSA production
